These results are taken from article PMC12040169 (PLOS Biology, 2025).

A short description of this data set: in vitro. Particulars: human, hela cells, % viability.

Each structure is given as a SMILES string.

Regarding `Cc1c(C(=O)N(C)CC(F)(F)F)nnn1-c1ccc(F)cc1` [CBK282214], the viability at 28.5 h, 10 µM was found to be 89.8%.
`COc1ccc(OCC2CCN(C(=O)[C@@H]3C[C@@H]4C=C[C@H]3C4)CC2)cc1` [CBK282218]: the viability at 28.5 h, 10 µM was 93.5%.
For `COc1ccccc1C(=O)N1CCC(c2nc(C)n3ccccc23)C1` (stereo not drawn) [CBK282221], the viability at 28.5 h, 10 µM was found to be 88.4%.
The figure for `Cc1nc(C)c(CC(=O)N2CCC(Oc3cccc(F)c3)CC2)s1` [CBK282223] is 97.4%; for `COc1ccccc1CNC(=O)CCn1ccc2ccncc21` [CBK282229] it is 91.9%; for `Cc1ccnn1CCC(=O)N1CCCC1c1cc2cccnc2[nH]1` (stereo not drawn) [CBK282230] it is 111%.
For `Cc1nn(C)cc1C(=O)N1CCC(c2cc3c(C)cccc3cn2)CC1` [CBK282231], the viability at 28.5 h, 10 µM came out at 103%.
As to `CC(=O)NC(c1nccs1)C1CCN(C(=O)C2CC2C)CC1` (stereo not drawn) [CBK282232], the viability at 28.5 h, 10 µM came out at 101%.
The result for `Cc1nc(C2CCN(C(=O)c3cccnc3)CC2)c2sccn12` [CBK282233] reads 106%; that for `CCn1nccc1C(=O)N1CCC(c2cc3c(C)cccc3cn2)CC1` [CBK282234], 92.4%; that for `Cc1nc(C2CCCN(C(=O)c3cscn3)C2)c2sccn12` (stereo not drawn) [CBK282236], 88.2%.
As for `CCCC(=O)N1CCC(c2cc3n(n2)[C@@H](C(F)(F)F)C[C@@H](C)N3)C1` (stereo partly drawn) [CBK282237], the viability at 28.5 h, 10 µM was determined as 99.2%.
Consider `Cc1nc(C2CCN(C(=O)CCc3ccno3)CC2)c2sccn12` [CBK282239], for which the viability at 28.5 h, 10 µM turned out to be 93.1%.
The figure for `Cc1nc(C2CCN(C(=O)CCC3CCCO3)CC2)c2sccn12` (stereo not drawn) [CBK282240] is 106%.
The figure for `Cc1nc(C2CCCN(C(=O)C3CCCO3)C2)c2sccn12` (stereo not drawn) [CBK282241] is 106%; for `Cc1ccc(OC(C)C(=O)N2CCCc3c(cnn3C)C2)cc1` (stereo not drawn) [CBK282242] it is 98.2%; for `CC(=O)N[C@H](C)Cn1nnc2ccccc21` [CBK282246] it is 88%.
In the case of `O=C(NCCc1ccco1)c1ncoc1-c1ccc(F)cc1` [CBK282247], the viability at 28.5 h, 10 µM came to 104%.
With `CN(CCCNC(=O)c1ncoc1-c1cccs1)c1ccccc1` [CBK282248], the viability at 28.5 h, 10 µM worked out at 103%.
Take `Cc1noc(C)c1C(=O)N1CCC[C@@H](C(=O)c2ccccc2F)C1` [CBK282249]: the viability at 28.5 h, 10 µM was 90.5%.
In the case of `O=C(NC1CCCc2c1cnn2Cc1ccccc1)c1ccncc1` (stereo not drawn) [CBK282250], the viability at 28.5 h, 10 µM is 93.8%.
The result for `Cn1ncc2c1CCCN(C(=O)Cc1ccc3c(c1)CCCO3)C2` [CBK282253] reads 87.8%.
The result for `CC(=O)N1C[C@H]2CCCN(S(=O)(=O)c3ccc4c(c3)CCC4)[C@H]2C1` [CBK282254] reads 87.5%; that for `O=C(C1CC1)N1C[C@H]2CCCN(S(=O)(=O)c3cccs3)[C@H]2C1` [CBK282255], 105%.
The figure for `O=C(c1cccs1)N1CCOC(Cn2ccnc2)C1` (stereo not drawn) [CBK282256] is 103%.
On to `CCC(C)C(=O)N1CCC(c2nnc3n2CCCCC3)CC1` (stereo not drawn) [CBK282260], for which the viability at 28.5 h, 10 µM worked out at 85.4%.
As to `Cn1nccc1CN(Cc1ccc(F)cc1)Cc1cccnc1` [CBK282261], the viability at 28.5 h, 10 µM was 101%.
As for `CC(Cn1cncn1)C(=O)N1CCCCC1CCc1ccccc1` (stereo not drawn) [CBK282265], the viability at 28.5 h, 10 µM was found to be 109%.
As for `CCOC(=O)Cn1c(-c2cccs2)cc2cccnc21` [CBK282267], the viability at 28.5 h, 10 µM was determined as 95.2%.
The figure for `COC(=O)Cn1c(-c2ccc(OC)cc2)cc2cccnc21` [CBK282268] is 82.7%.
The result for `Fc1ccc(CN2CC3CCCC(C2)C3N2CCOCC2)cc1F` (stereo not drawn) [CBK282270] reads 95.8%; that for `Cn1ccnc1C1(O)CCN(C(=O)NC2CCCCC2)CC1` [CBK282275], 91.8%.
The result for `Cn1ccnc1C1(O)CCN(C(=O)NCc2ccccc2)CC1` [CBK282276] reads 94.9%.
